Results published in patent EP4707280A1, “1,4-CINEOLE DERIVATIVE AND INTERMEDIATE THEREOF, HERBICIDE CONTAINING SAID DERIVATIVE AS ACTIVE INGREDIENT, METHOD FOR USING HERBICIDE, AND METHOD FOR PREPARING AGROCHEMICAL COMPOSITION” (HOKKO CHEMICAL INDUSTRY CO., LTD., priority 2023, dated 2024).

What was measured:
Format in all cases: in vivo
[1] = system: Echinochloa crus-galli var. formosensis; assay: Test Example 2: herbicidal effect test by application during growth period of paddy rice; settings: Echinochloa crus-galli; 120 g per 10 ares; applied seven days after sowing, flooded pots; 14 days after application; read-out: weed inhibition rate
Summary of the method: (§1)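 Paddy soil in Wagner pots was puddled with N:P:K 16:16:16 fertilizer, sown with 30 weed seeds per species at 0–1 cm and flooded to about 3 cm. Seven days after sowing, a water-diluted emulsifiable concentrate was dropped onto the water at 120 g active ingredient per 10 ares. Weed inhibition (%) was scored at 14 days, in duplicate.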

[2] = system: Scirpus juncoides; assay: as above; settings: Schoenoplectiella juncoides; 120 g per 10 ares; applied seven days after sowing, flooded pots; 14 days after application; read-out: weed inhibition rate
Summary of the method: as §1

[3] = system: Echinochloa crus-galli; assay: Test Example 7: herbicidal effect test by soil application in upland field (low dose); settings: Echinochloa crus-galli, 7.5 g per 10 ares, sprayed one day after sowing, 14 days after application, read-out: weed inhibition rate
Summary of the method: (§2)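 Pre-emergence soil application: upland alluvial loam pots sown with weed seeds mixed into the top 1 cm; one day after sowing, a water-diluted emulsifiable concentrate was sprayed on the soil at 100 L per 10 a, delivering 7.5 g active ingredient per 10 a. Weed inhibition rate (%) scored 14 days after application, duplicate pots.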

[4] = system: Digitaria ciliaris; assay: as above; settings: Digitaria ciliaris, 7.5 g per 10 ares, sprayed one day after sowing, 14 days after application, read-out: weed inhibition rate
Summary of the method: as §2

[5] = system: Echinochloa crus-galli; assay: Test Example 4: herbicidal effect test by stem and leaf treatment in upland field; settings: Echinochloa crus-galli; 120 g per 10 ares; sprayed seven days after sowing, upland soil; 14 days after application; read-out: weed inhibition rate
[6] = system: Echinochloa crus-galli; assay: Test Example 3: herbicidal effect test by soil application in upland field; settings: Echinochloa crus-galli, 120 g per 10 ares, sprayed one day after sowing, 14 days after application, read-out: weed inhibition rate
Summary of the method: (§3)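 Pre-emergence test: seeds mixed into top 1 cm of alluvial loam upland soil in pots; emulsifiable concentrate diluted in water sprayed on soil one day after sowing at 100 L/10 a, 120 g a.i./10 a. Weed inhibition rate (%) scored at 14 days, in duplicate.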

[7] = system: Digitaria ciliaris; assay: as above; settings: Digitaria ciliaris, 120 g per 10 ares, sprayed one day after sowing, 14 days after application, read-out: weed inhibition rate
Summary of the method: as §3

[8] = system: Echinochloa crus-galli var. formosensis; assay: Test Example 1: herbicidal effect test by soil application in paddy rice; settings: Echinochloa crus-galli, soil, 336 h; 120 g active ingredient per 10 ares; applied immediately after sowing, flooded pots; 14 days after application; read-out: weed inhibition rate
Summary of the method: (§4)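 Paddy soil in Wagner pots (1/10,000 acre), fertilized and puddled; 30 seeds per species sown at 0–1 cm, flooded to ~3 cm, greenhouse. Water-diluted emulsifiable concentrate dropped onto flooded pots right after sowing at 120 g active ingredient per 10 ares.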

[9] = system: Scirpus juncoides; assay: as above; settings: Schoenoplectiella juncoides, soil, 336 h; 120 g active ingredient per 10 ares; applied immediately after sowing, flooded pots; 14 days after application; read-out: weed inhibition rate
Summary of the method: as §4

[10] = system: Digitaria ciliaris; assay: Test Example 4: herbicidal effect test by stem and leaf treatment in upland field; settings: Digitaria ciliaris; 120 g per 10 ares; sprayed seven days after sowing, upland soil; 14 days after application; read-out: weed inhibition rate
[11] = system: Echinochloa crus-galli var. formosensis; assay: Test Example 5: herbicidal effect test by soil application in paddy rice (low dose); settings: Echinochloa crus-galli, soil, 336 h; 7.5 g per 10 ares; applied immediately after sowing, flooded pots; 14 days after application; read-out: weed inhibition rate
Summary of the method: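 Paddy soil in Wagner pots was fertilized (N:P:K 16:16:16), puddled, sown with 30 seeds per weed species at 0–1 cm, then flooded to ~3 cm in a glass greenhouse. Emulsifiable concentrate diluted in water was dropper-applied into floodwater immediately, at 7.5 g active ingredient per 10 ares; duplicates, scored at 14 days.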

[12] = system: Echinochloa crus-galli; assay: Test Example 8: herbicidal effect test by stem and leaf treatment in upland field (low dose); settings: Echinochloa crus-galli; 7.5 g per 10 ares; sprayed seven days after sowing, upland soil; 14 days after application; read-out: weed inhibition rate
[13] = system: Digitaria ciliaris; assay: as above; settings: Digitaria ciliaris; 7.5 g per 10 ares; sprayed seven days after sowing, upland soil; 14 days after application; read-out: weed inhibition rate
[14] = system: Echinochloa crus-galli var. formosensis; assay: Test Example 6: herbicidal effect test by application during growth period of paddy rice (low dose); settings: Echinochloa crus-galli; 7.5 g per 10 ares; applied seven days after sowing, flooded pots; 14 days after application; read-out: weed inhibition rate
Summary of the method: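 Paddy-soil pots, flooded ~3 cm after sowing weed seeds at 0-1 cm depth, greenhouse-grown. Seven days after sowing, diluted emulsifiable concentrate applied by dropper at 7.5 g active ingredient per 10 ares. Weed inhibition rate (%) scored 14 days after application, in duplicate.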

CC(C)=CCO[C@@H]1C[C@]2(C(C)C)O[C@@]1(C)C[C@@H]2I [1-732, (1R,2S,4S,5R)-2-iodo-1-isopropyl-4-methyl-5-(3-methylbut-2-enoxy)-7-oxabicyclo[2.2.1]heptane]
≥ 80%: inhibition at 1200 g/ha [1] | inhibition at 1200 g/ha [2] | inhibition at 75 g/ha [3] | inhibition at 75 g/ha [4] | inhibition at 1200 g/ha [5] | inhibition at 1200 g/ha [6] | inhibition at 1200 g/ha [7] | pest or weed control at 1200 g/ha [8] | pest or weed control at 1200 g/ha [9] | inhibition at 1200 g/ha [10] | inhibition at 75 g/ha [11] | inhibition at 75 g/ha [12] | inhibition at 75 g/ha [13] | inhibition at 75 g/ha [14]

CC#CCOC1CC2(C(C)C)OC1(C)CC2I (stereo not shown) [1-1402, 5-but-2-ynoxy-2-iodo-1-isopropyl-4-methyl-7-oxabicyclo[2.2.1]heptane]
≥ 80%: inhibition at 1200 g/ha [1] | inhibition at 1200 g/ha [2] | inhibition at 75 g/ha [3] | inhibition at 75 g/ha [4] | inhibition at 1200 g/ha [5] | inhibition at 1200 g/ha [6] | inhibition at 1200 g/ha [7] | pest or weed control at 1200 g/ha [8] | pest or weed control at 1200 g/ha [9] | inhibition at 1200 g/ha [10] | inhibition at 75 g/ha [11] | inhibition at 75 g/ha [12] | inhibition at 75 g/ha [13] | inhibition at 75 g/ha [14]

CC(C)C12CC(OCc3c(F)cccc3Cl)C(C)(CC1Cl)O2 (stereo not shown) [1-1315, 5-chloro-2-[(2-chloro-6-fluorophenyl)methoxy]-1-methyl-4-isopropyl-7-oxabicyclo[2.2.1]heptane]
≥ 80%: inhibition at 1200 g/ha [1] | inhibition at 1200 g/ha [2] | inhibition at 75 g/ha [3] | inhibition at 75 g/ha [4] | inhibition at 1200 g/ha [5] | inhibition at 1200 g/ha [6] | inhibition at 1200 g/ha [7] | pest or weed control at 1200 g/ha [8] | pest or weed control at 1200 g/ha [9] | inhibition at 1200 g/ha [10] | inhibition at 75 g/ha [11] | inhibition at 75 g/ha [12] | inhibition at 75 g/ha [13] | inhibition at 75 g/ha [14]

CC(C)C12CC(OCc3ccccc3C#N)C(C)(CC1I)O2 (stereo not shown) [1-1436, 2-[(5-iodo-1-methyl-4-isopropyl-7-oxabicyclo[2.2.1]heptan-2-yl)oxymethyl]benzonitrile]
≥ 80%: inhibition at 1200 g/ha [1] | inhibition at 1200 g/ha [2] | inhibition at 75 g/ha [3] | inhibition at 75 g/ha [4] | inhibition at 1200 g/ha [5] | inhibition at 1200 g/ha [6] | inhibition at 1200 g/ha [7] | pest or weed control at 1200 g/ha [8] | pest or weed control at 1200 g/ha [9] | inhibition at 1200 g/ha [10] | inhibition at 75 g/ha [11] | inhibition at 75 g/ha [12] | inhibition at 75 g/ha [13] | inhibition at 75 g/ha [14]

Cc1cccc(C)c1COC1CC2(C(C)C)OC1(C)CC2Cl (stereo not shown) [1-1610, 5-chloro-2-[(2,6-dimethylphenyl)methoxy]-1-methyl-4-isopropyl-7-oxabicyclo[2.2.1]heptane]
≥ 80%: inhibition at 1200 g/ha [1] | inhibition at 1200 g/ha [2] | inhibition at 75 g/ha [3] | inhibition at 75 g/ha [4] | inhibition at 1200 g/ha [5] | inhibition at 1200 g/ha [6] | inhibition at 1200 g/ha [7] | pest or weed control at 1200 g/ha [8] | pest or weed control at 1200 g/ha [9] | inhibition at 1200 g/ha [10] | inhibition at 75 g/ha [11] | inhibition at 75 g/ha [12] | inhibition at 75 g/ha [13] | inhibition at 75 g/ha [14]

COc1ccccc1COC1CC2(C(C)C)OC1(C)CC2I (stereo not shown) [1-1415, 5-iodo-2-[(2-methoxyphenyl)methoxy]-1-methyl-4-isopropyl-7-oxabicyclo[2.2.1]heptane]
≥ 80%: inhibition at 1200 g/ha [1] | inhibition at 1200 g/ha [2] | inhibition at 75 g/ha [3] | inhibition at 75 g/ha [4] | inhibition at 1200 g/ha [5] | inhibition at 1200 g/ha [6] | inhibition at 1200 g/ha [7] | pest or weed control at 1200 g/ha [8] | pest or weed control at 1200 g/ha [9] | inhibition at 1200 g/ha [10] | inhibition at 75 g/ha [11] | inhibition at 75 g/ha [12] | inhibition at 75 g/ha [13] | inhibition at 75 g/ha [14]

CC(C)C12CC(OCc3c(F)cccc3Br)C(C)(CC1I)O2 (stereo not shown) [1-1612, 5-[(2-bromo-6-fluoro-phenyl)methoxy]-2-iodo-1-isopropyl-4-methyl-7-oxabicyclo[2.2.1]heptane]
≥ 80%: inhibition at 1200 g/ha [1] | inhibition at 1200 g/ha [2] | inhibition at 75 g/ha [3] | inhibition at 75 g/ha [4] | inhibition at 1200 g/ha [5] | inhibition at 1200 g/ha [6] | inhibition at 1200 g/ha [7] | pest or weed control at 1200 g/ha [8] | pest or weed control at 1200 g/ha [9] | inhibition at 1200 g/ha [10] | inhibition at 75 g/ha [11] | inhibition at 75 g/ha [12] | inhibition at 75 g/ha [13] | inhibition at 75 g/ha [14]

Cc1ccccc1COC1CC2(C(C)C)OC1(C)CC2I (stereo not shown) [1-1409, 5-iodo-1-methyl-2-[(2-methylphenyl)methoxy]-4-isopropyl-7-oxabicyclo[2.2.1]heptane]
≥ 80%: inhibition at 1200 g/ha [1] | inhibition at 1200 g/ha [2] | inhibition at 75 g/ha [3] | inhibition at 75 g/ha [4] | inhibition at 1200 g/ha [5] | inhibition at 1200 g/ha [6] | inhibition at 1200 g/ha [7] | pest or weed control at 1200 g/ha [8] | pest or weed control at 1200 g/ha [9] | inhibition at 1200 g/ha [10] | inhibition at 75 g/ha [11] | inhibition at 75 g/ha [12] | inhibition at 75 g/ha [13] | inhibition at 75 g/ha [14]

CC(C)[C@]12C[C@@H](OCc3ccsc3)[C@](C)(C[C@@H]1Cl)O2 [1-662, (1R,2S,4S,5R)-2-chloro-1-isopropyl-4-methyl-5-(3-thienylmethoxy)-7-oxabicyclo[2.2.1]heptane]
≥ 80%: inhibition at 1200 g/ha [1] | inhibition at 1200 g/ha [2] | inhibition at 75 g/ha [3] | inhibition at 75 g/ha [4] | inhibition at 1200 g/ha [5] | inhibition at 1200 g/ha [6] | inhibition at 1200 g/ha [7] | pest or weed control at 1200 g/ha [8] | pest or weed control at 1200 g/ha [9] | inhibition at 1200 g/ha [10] | inhibition at 75 g/ha [11] | inhibition at 75 g/ha [12] | inhibition at 75 g/ha [13] | inhibition at 75 g/ha [14]

CC(C)C12CC(OCc3cccs3)C(C)(CC1Cl)O2 (stereo not shown) [1-1323, 2-chloro-1-isopropyl-4-methyl-5-(2-thienylmethoxy)-7-oxabicyclo[2.2.1]heptane]
≥ 80%: inhibition at 1200 g/ha [1] | inhibition at 1200 g/ha [2] | inhibition at 75 g/ha [3] | inhibition at 75 g/ha [4] | inhibition at 1200 g/ha [5] | inhibition at 1200 g/ha [6] | inhibition at 1200 g/ha [7] | pest or weed control at 1200 g/ha [8] | pest or weed control at 1200 g/ha [9] | inhibition at 1200 g/ha [10] | inhibition at 75 g/ha [11] | inhibition at 75 g/ha [12] | inhibition at 75 g/ha [13] | inhibition at 75 g/ha [14]

CC(C)C12CC(OCc3c(F)cccc3Cl)C(C)(CC1I)O2 (stereo not shown) [1-1448, 5-[(2-chloro-6-fluoro-phenyl)methoxy]-2-iodo-1-isopropyl-4-methyl-7-oxabicyclo[2.2.1]heptane]
≥ 80%: inhibition at 1200 g/ha [1] | inhibition at 1200 g/ha [2] | inhibition at 75 g/ha [3] | inhibition at 75 g/ha [4] | inhibition at 1200 g/ha [5] | inhibition at 1200 g/ha [6] | inhibition at 1200 g/ha [7] | pest or weed control at 1200 g/ha [8] | pest or weed control at 1200 g/ha [9] | inhibition at 1200 g/ha [10] | inhibition at 75 g/ha [11] | inhibition at 75 g/ha [12] | inhibition at 75 g/ha [13] | inhibition at 75 g/ha [14]
